{"source": "patent US20230133504A1", "about": "“METHOD OF TREATING GRAFT-VERSUS-HOST DISEASE” (REGENTS OF THE UNIVERSITY OF MICHIGAN, priority 2021, published 2023)", "key": {"[1]": {"test_system": "small intestinal organoids", "test": "small intestinal organoids culture in vitro (GFP-Lgr5 transgenic mouse crypts)", "format": "cell-based", "description": "FIGS. 3A-3D display the effect of Compound No. 36 on intestinal organoids culture in vitro. Intestinal organoids were established from culture of small intestinal crypts in GFP-Lgr5 transgene B6 mice. 3-5 passages of organoids were used to test the effect of Compound No. 36 in vitro. After dissociation of organoids, 100 crypts per well mixed with Matrigel-culture medium were plated in 24-well plate. After the Matrigel polymerized, 500 μL of culture medium with different concentrations of Compound No. 36 or vector were added to each well. The growth of the organoids was checked daily. Three days after coculture, organoid numbers and budding numbers were counted under the microscope and were photographed (FIG. 3A). Then, organoids were mechanically disrupted and dissociated into single cells with TrypLE Express. Cells were stained with anti-CD326, annexin V, and 7-AAD to analyze GFP-Lgr5^hi cells apoptosis by flow cytometry (FIGS. 3B-3D).\nTo further determine whether Compound No. 36 has any direct GVHD organ (e.g., GI tract) toxicity or conversely, a regenerative effects, in the context of BMT, various concentrations of Compound No. 36 was cocultured with established small intestinal organoids, in which the intestine crypts were from the GFP-Leucine-rich repeat-containing G protein-coupled receptor 5 (Lgr5) transgenic mouse strain. Intestinal organoids were established from culture of small intestinal crypts in GFP-Lgr5 transgene B6 mice. 3-5 passages of organoids were used to test the effect of Compound No. 36 in vitro. After dissociation of organoids, 100 crypts per well mixed with Matrigel-culture medium were plated in 24-well plate. After the Matrigel polymerized, 500 μL of culture medium with different concentrations of Compound No. 36 or vector were added to each well. Orgonoid growth was assessed daily. Three days after coculture, organoid numbers and budding numbers were counted under the microscope and were photographed (FIG. 3A). […] Organoids were then mechanically disrupted and dissociated into single cells with TrypLE Express. […]"}, "[2]": {"test_system": "acute GVHD in BALB/c recipient mice", "test": "acute GVHD model, C57BL/6 (H-2Kb) into BALB/c (H-2Kd) MHC mismatch bone marrow transplantation", "format": "in vivo, mouse", "conditions": "for survival: allogeneic recipients, 25 mg/kg i.p., p<0.001", "description": "FIGS. 1A-1C. Compound No. 36 treatment of acute GVHD model. BALB/c recipient mice on day 0 received 5×10^6 of bone marrow cells and 1×10^6 of purified splenic T cells from allogeneic C57BL/6 donor or syngeneic BALB/c donor following lethal irradiation with 800 rads on day −1. Recipients received intraperitoneal injections of 25 mg/kg of Compound No. 36 or vector starting on day −1, then three times weekly, from day −1 to day 21. Mice were monitored […]. […] Data in *, P<0.05; **, P<0.01. Syn—syngenic; Allo—allogeneic.\nTo determine whether Compound No. 36 affects established parameters of acute GVHD, a well-established C57BL/6 (H-2Kb) into a BALB/c (H-2Kd) major histocompatibility complex (MHC) mismatch model was used. On day 0, BALB/c recipient mice received 5×10^6 of bone marrow cells and 1×10^6 of purified splenic T cells from allogeneic C57BL/6 donor or syngeneic BALB/c donor following lethal irradiation with 800 centiGray (units of radiation) on day −1. Recipients received intraperitoneal injections of 25 mg/kg every other day of Compound No. 36 or vector from day −1 to day 21. Mice were monitored daily for survival and weekly for GVHD score."}, "[3]": {"test_system": "A20 mouse BALB/c lymphoma cell line in BALB/c recipient mice", "test": "graft-versus tumor (GVT): acute GVHD model challenged with A20 tumor cells", "format": "in vivo", "from_the_text": "FIGS. 2A-2C. Compound No. 36 treatment of acute GVHD model challenged with A20 tumor cells. Using the same method as described in FIGS. 1A-1C, BALB/c recipient mice underwent major histocompatibility complex (MHC) major mismatch allogeneic bone marrow transplantation (BMT) with C57BL/6 donor or with BALB/c donor as syngeneic control. BALB/c recipient mice on day 0 received 5×10^6 of bone marrow cells and 1×10^6 of purified splenic T cells with or without 0.5×10^6 A20 cells inoculum. As indicated here, recipients received intraperitoneal injections of 25 mg/kg of Compound No. 36 or vector starting on day −1, then three time weekly, from day −1 to day 21. Mice were monitored weekly for survival and GVHD score. FIG. 2A indicates body weight changes of animals measured weekly.\nData in *, P<0.05; **, P<0.01. Syn—syngenic; Allo—allogeneic.\nAs GVHD is tightly linked to the graft-versus tumor (GVT) response, testing was undertaken to determine whether Compound No. 36 treatment reduces the effect of GVT in the same mouse model as for GVHD (Example 1). To that end, a mouse BALB/c lymphoma cell line, A20 (0.5×10^6), thus syngeneic to the recipients, was incorporated to the bone marrow transplantation (BMT) cell inoculum on day 0. Recipients received the same doses of Compound No. 36 or vector from day −1 to day 21 as the above model. Syngeneic recipients of BALB/c to BALB/c were also setup with or without A20 cell inoculum and injected the same doses of Compound No. 36 or vector. Syngeneic recipients challenged with A20 cells got systemic tumor infiltration (lower-limb paralysis, hepatosplenomegaly) and 100% of recipients died within 3 weeks after BMT without Compound No. 36 treatment (FIG. 2A and FIG. 2B)."}}}
{"smiles": "NC(=O)CC[C@H](NC(=O)[C@@H]1CC[C@@H]2CCN(C(=O)CCCCCC#Cc3cccc4c3CN(C3CCC(=O)NC3=O)C4=O)C[C@H](NC(=O)c3cc4cc(C(F)(F)P(=O)(O)O)ccc4[nH]3)C(=O)N21)C(=O)NC(c1ccccc1)c1ccccc1", "note": "(stereo partly drawn) [Compound No. 36, ((2-(((5S,8S,10aR)-8-(((S)-5-amino-1-(benzhydrylamino)-1,5-dioxopentan-2-yl)carbamoyl)-3-(8-(2-(2,6-dioxopiperidin-3-yl)-1-oxoisoindolin-4-yl)oct-7-ynoyl)-6-oxodecahydropyrrolo[1,2-a][1,5]diazocin-5-yl)carbamoyl)-1H-indol-5-yl)difluoromethyl)phosphonic acid]", "values": [{"measurement": "toxicity on intestine", "setting": "[1]; conclusion from the organoid data", "result": "does not have significant toxicity on intestine"}, {"measurement": "organoid numbers and budding numbers", "setting": "[1]; three days after coculture, series concentrations", "result": "No significant changes were observed"}, {"measurement": "Lgr5-GFP+ stem cells and Annexin V expression (apoptosis) by flow cytometry", "setting": "[1]; three days after coculture, vs. vector group", "result": "no differences between vector group and Compound No. 36 treatment group were observed"}, {"measurement": "acute GVHD severity (body weight loss and clinical GVHD scores)", "setting": "[2]; allogeneic C57BL/6 to BALB/c, 25 mg/kg intraperitoneal every other day, day -1 to day 21, vs. vector", "result": "significantly reduce acute GVHD severity by reducing body weight loss and clinical GVHD scores"}, {"measurement": "survival", "setting": "[2]; day 50, vector 50%", "result": 100, "unit": "%"}, {"measurement": "survival", "setting": "[2]; day 100, vector 12%", "result": 53, "unit": "%"}, {"measurement": "signs of toxicity or GVHD", "setting": "[2]; syngeneic recipients BALB/c to BALB/c, same doses (25 mg/kg i.p.)", "result": "did not present any signs of toxicity"}, {"measurement": "survival rate", "setting": "[2]; syngeneic recipients BALB/c to BALB/c, same doses, until the end point", "result": 100, "unit": "%"}, {"measurement": "tumor-related death", "setting": "[3]; allogeneic GVHD model challenged with A20 cells, by 6 weeks after BMT", "result": "no tumor-related death was observed"}, {"measurement": "mice survival", "setting": "[3]; allogeneic GVHD model challenged with A20 cells, by 6 weeks after BMT, vector 50%, p<0.05", "result": 100, "unit": "%"}, {"measurement": "GVHD severity", "setting": "[3]; allogeneic GVHD model challenged with A20 cells, by 6 weeks after BMT, vs. vector", "result": "significantly reduced GVHD severity"}, {"measurement": "survival time", "setting": "[3]; syngeneic recipients receiving A20 cells (0.5x10^6), 25 mg/kg i.p. day -1 to day 21, vs. no treatment (100% died within 3 weeks)", "result": "significantly extended the survival time"}]}
